# Experimental data published in patent US5395611A, “Phenolic amine depigmenting and antimelanoma agents” (The Governors of the University of Alberta, priority 1992, dated 1995).
# Values joined by “and” are separate entries in the source; they are usually repeats but may differ in a detail not shown here. Equal entries are not always repeated.
# Tested on: B16F10 melanoma colonies
# Test: Melanoma-colony formation in the lungs
# Assay type: in vivo, mouse
# Protocol: Murine B16F10 melanoma cell line with a strong metastatic property to form tumour colonies in the lungs was obtained from Dr. Longenecker, Department of Immunology, University of Alberta. Such cell line is well recognized and readily available as reported in Miura et al, supra. The cells were grown in T-75 flasks in dulbecco's MEM available from Gipco Lab Inc., Grand Island, N.Y., supplemented with 10% fetal calf serum, also obtained from Gipco, penicillin (100 μ/ml) and streptomycin (100 μg/ml). The cells were incubated at 37° C. in humidified atmosphere of 5% CO2 in air. […] Viable cells were identified by trypan blue dye exclusion and counted. The cell suspension was diluted to the desired concentration. […] On day zero, the mice were inoculated via the lateral tail vein with 5×10^4 cells in 0.2 ml of N saline. The test drugs were dissolved in normal saline, sterilized by membrane filtration, and administered in a dose of 300 mg/Kg (4 -S-CAP) or 900 mg/Kg (N-Ac-4-S-CAP); starting on day five, the control solution or drug was injected i.p. daily for 14 days. On day 26, the mice were killed by cervical dislocation, their lungs were removed, and the number of melanoma colonies was counted under a dissecting microscope. The results were expressed as percentage reduction in the number of colonies: [a-b/a]×100, where a=colonies in control group and b=colonies in experimental group.
structure (smiles),measurement,setting,value
"NCCSc1ccc(O)cc1 [4-S-CAP, 4-S-cysteaminylphenol, reference compound]","Colonies, % control","300 mg/kg i.p. daily for 14 days, day 26",32.4% and 30%
same,Number of B16F10 melanoma colonies,in words,significantly reduced
